From patent US7030157B2, “Pharmaceutical compositions, kits and methods comprising combinations of estrogen agonists/antagonists, estrogens and progestins” (priority 2001, dated 2006)
“Also recorded” adds a separate entry of the source.

Experiments:
[1] = Total serum cholesterol (TSC) in OVX rats; type: in vivo, Sprague-Dawley female rats; details: daily gavage 28 days, EE 0.03 mg/kg, LAS 0.1 mg/kg
Procedure: (§1) Sprague-Dawley female rats at 5.5 months of age were used in this study. Rats underwent either sham-operation or bilateral ovariectomy. Beginning at 1 day post-surgery, the rats were treated (daily gavage) with vehicle, 17α-ethanyl estradiol (EE) alone, lasofoxifene (LAS) alone, or combination of both EE and LAS for 28 days, according to the following protocol.
(§2) There were 10 rats in each group. All rats received subcutaneous injections of the fluorescent marker, calcein, at 10 mg/kg on days 12 and 2 before necropsy in order to determine dynamic bone changes. After 28 days of treatment, the rats were necropsy, and the following endpoints were determined. • Body weight • Total serum cholesterol (TSC) • Uterine wet weight • Peripheral quantitative computerized tomography (pQCT). A pQCT X-ray machine (Stratec XCT Reasearch M, Norland Medical Systems, Fort Atkinson, Wis.) with version 5.40 was used to scan femurs from this study. […] Cortical bone was defined and analyzed using contour mode 2 and cortical mode 4. […] Furthermore, cortical bone along the endocortical surface was determined with an inner threshold of 529 mg/cm^3. […] For trabecular and cortical bone, content, density and area were determined. […]
(§3) Statistics were calculated using StatView 4.0 software (Abacus Concepts, Inc., Berkeley, Calif.). […]

uterus of OVX rats = assay: Uterine wet weight in OVX rats
Procedure: as §1, §2, §3

OVX-induced bone loss = assay: pQCT of the distal femur in OVX rats; type: in vivo, Sprague-Dawley female rats; details: for pQCT cortical content, distal femur / pQCT total density, distal femur: daily gavage 28 days, EE 0.03 mg/kg, LAS 0.1 mg/kg; for OVX-induced bone loss: fully efficacious doses (EE 0.03 mg/kg, LAS 0.1 mg/kg), 28 days
Procedure: as §1
(§4) There were 10 rats in each group. All rats received subcutaneous injections of the fluorescent marker, calcein, at 10 mg/kg on days 12 and 2 before necropsy in order to determine dynamic bone changes. After 28 days of treatment, the rats were necropsy, and the following endpoints were determined. • Body weight • Total serum cholesterol (TSC) • Uterine wet weight • Peripheral quantitative computerized tomography (pQCT). A pQCT X-ray machine (Stratec XCT Reasearch M, Norland Medical Systems, Fort Atkinson, Wis.) with version 5.40 was used to scan femurs from this study. A cross sectional slice 1 mm in thickness was taken of the femoral metaphysis approximately 5 mm proximal to the distal end. A voxel size of 0.10 mm was used, with dimensions of 100×100×1000 micometers. Cortical bone was defined and analyzed using contour mode 2 and cortical mode 4. The cortical shell was distinguished from soft tissue with an outer threshold setting of 349 mg/cm^3. Furthermore, cortical bone along the endocortical surface was determined with an inner threshold of 529 mg/cm^3. In order to determine the presence of trabecular bone, peel mode 4 was used. (Sub)Cortical bone was distinguished from cancellous bone with a threshold setting of 655 mg/cm^3. An additional concentric peel was also used to eliminate (sub)cortical bone from any analyses. For trabecular and cortical bone, content, density and area were determined. […] Tibiae were removed upon necropsy and removed of tissue. The proximal portion of the tibia was fixed in 70% ethanol, dehydrated in graded concentrations of ethanol, defatted in acetone, and embedded in methyl methacrylate. Four and ten μm sections were taken to determine several histomorphometric parameters with an Image Analysis System (Osteomeasure, Inc., Atlanta, Ga.). The 10 μm remained unstained while the 4 μm section was stained with modified Masson's Trichrome stain (5,6,7). Statistics
(§5) Statistics were calculated using StatView 4.0 software (Abacus Concepts, Inc., Berkeley, Calif.). Fisher's PLSD was used to determine the differences between each group. A p value<0.05 was considered a significant difference.

[2] = test system: OVX-induced bone resorption and bone turnover; assay: Dynamic histomorphometry of the proximal tibial metaphysis in OVX rats; type: in vivo, Sprague-Dawley female rats; details: daily gavage 28 days, EE 0.03 mg/kg, LAS 0.1 mg/kg
Procedure: as §1, §4, §5

estrogen receptor α = estrogen receptor α (Homo sapiens, UniProt P03372); details: previously reported; similar to the binding of estradiol; cited from earlier work
estrogen receptor β = estrogen receptor β (Homo sapiens, UniProt Q92731); details: previously reported; similar to the binding of estradiol; cited from earlier work
breast cancer = details: previously reported; cited from earlier work
[3] = test system: uterine cancer cell lines; details: previously reported; cited from earlier work

estrogen receptor α, sequence (P03372 whole entry): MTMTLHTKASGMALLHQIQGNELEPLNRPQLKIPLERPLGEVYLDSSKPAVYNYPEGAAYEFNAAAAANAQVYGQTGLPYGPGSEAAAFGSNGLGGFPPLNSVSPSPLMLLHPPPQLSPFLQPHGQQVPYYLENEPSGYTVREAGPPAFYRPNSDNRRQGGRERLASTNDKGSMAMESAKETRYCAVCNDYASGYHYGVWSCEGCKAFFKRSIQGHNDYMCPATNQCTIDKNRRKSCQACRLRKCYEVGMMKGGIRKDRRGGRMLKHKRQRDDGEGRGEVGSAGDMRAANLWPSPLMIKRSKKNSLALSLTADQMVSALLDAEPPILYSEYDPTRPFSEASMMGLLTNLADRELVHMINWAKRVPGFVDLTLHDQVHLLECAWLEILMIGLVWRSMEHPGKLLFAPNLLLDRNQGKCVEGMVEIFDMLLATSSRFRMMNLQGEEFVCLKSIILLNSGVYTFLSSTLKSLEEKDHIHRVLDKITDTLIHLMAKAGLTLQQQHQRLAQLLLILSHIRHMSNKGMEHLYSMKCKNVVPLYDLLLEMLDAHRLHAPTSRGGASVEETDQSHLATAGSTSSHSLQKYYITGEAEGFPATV
estrogen receptor β, sequence (Q92731 whole entry): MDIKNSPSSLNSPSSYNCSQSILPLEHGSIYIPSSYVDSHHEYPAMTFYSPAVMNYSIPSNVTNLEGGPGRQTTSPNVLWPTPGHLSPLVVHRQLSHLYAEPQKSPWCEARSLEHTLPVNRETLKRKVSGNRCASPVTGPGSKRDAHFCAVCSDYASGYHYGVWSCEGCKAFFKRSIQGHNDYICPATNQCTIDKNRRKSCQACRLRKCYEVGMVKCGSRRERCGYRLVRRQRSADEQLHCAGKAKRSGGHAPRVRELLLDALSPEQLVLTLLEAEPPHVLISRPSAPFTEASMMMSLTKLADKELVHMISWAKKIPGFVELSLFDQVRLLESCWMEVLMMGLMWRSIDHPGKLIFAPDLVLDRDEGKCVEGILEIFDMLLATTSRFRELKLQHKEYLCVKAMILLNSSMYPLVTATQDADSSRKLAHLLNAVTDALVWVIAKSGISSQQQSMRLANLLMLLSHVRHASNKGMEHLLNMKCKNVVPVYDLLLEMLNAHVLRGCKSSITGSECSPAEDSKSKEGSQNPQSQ

SMILES: C#C[C@]1(O)CC[C@H]2[C@@H]3CCc4cc(O)ccc4[C@H]3CC[C@@]21C [EE, 17α-ethanyl estradiol, reference compound]
- total serum cholesterol (TSC) [1]: completely prevented this increase
- uterine wet weight (uterus of OVX rats; daily gavage 28 days, EE 0.03 mg/kg, LAS 0.1 mg/kg): maintained the uterine wet weight at the level of sham controls
- pQCT cortical content, distal femur (OVX-induced bone loss): completely prevented the OVX-induced decrease
- pQCT total density, distal femur (OVX-induced bone loss): completely prevented the OVX-induced decrease
- OVX-induced bone loss (OVX-induced bone loss): completely prevented OVX-induced bone loss
- bone formation rate (BFR/BS) [2]: completely prevented these changes
- mineral apposition rate (MAR) [2]: completely prevented these changes
- mineralizing surface (MS/BS) [2]: completely prevented these changes
- osteoclast number (Oc.N/BS) [2]: completely prevented these changes
- osteoclast surface (Oc.S/BS) [2]: completely prevented these changes

SMILES: O=C(O)C(O)C(O)C(=O)O.Oc1ccc2c(c1)CC[C@H](c1ccccc1)[C@@H]2c1ccc(OCCN2CCCC2)cc1 [LAS, (−)-cis-6-phenyl-5-[4-(2-pyrrolidin-1-yl-ethoxy)-phenyl]-5,6,7,8-tetrahydro-naphthalene-2-ol, tartrate salt]
- total serum cholesterol (TSC) ([1]; tartrate salt): prevented the OVX-induced increase in TSC; also recorded: significantly decreased TSC to a level below both sham controls and rats treated with EE
- effect of LAS on the uterine effects of EE on co-administration (uterus of OVX rats; EE 0.03 mg/kg + LAS 0.1 mg/kg, 28 days, tartrate salt): blocked the agonistic effects of EE in the uterus of OVX rats; also recorded: antagonized the uterine hypertrophy effects induced by EE
- pQCT cortical content, distal femur (OVX-induced bone loss): completely prevented the OVX-induced decrease
- pQCT total density, distal femur (OVX-induced bone loss): completely prevented the OVX-induced decrease
- OVX-induced bone loss (OVX-induced bone loss): completely prevented OVX-induced bone loss
- bone formation rate (BFR/BS) [2]: completely prevented these changes
- mineral apposition rate (MAR) [2]: completely prevented these changes
- mineralizing surface (MS/BS) [2]: completely prevented these changes
- osteoclast number (Oc.N/BS) [2]: completely prevented these changes
- osteoclast surface (Oc.S/BS) [2]: completely prevented these changes
- binding to estrogen receptor α (estrogen receptor α): bound selectively and with high affinity
- binding to estrogen receptor β (estrogen receptor β): bound selectively and with high affinity
- proliferation of breast cancer in vivo (breast cancer): antagonizes the proliferation
- proliferation of uterine cancer cell lines in vitro [3]: antagonizes the proliferation
